“And” between values parts separate entries of the source, which are not always exact repeats. Equal values may be shown once. Read-outs that look alike come from different tables or passages of the source.
Assays:
[1] = test system: nude mice of bone metastasis model (PC-3, MDA-MB-231, left tibia)
Protocol: The nude mice of the bone metastasis model were established by tibial bone marrow injection. The specific methods were as follows: 25 μL of prostate cancer PC-3 and breast cancer MDA-MB-231 cell culture medium were injected into the left tibial bone marrow cavity of healthy male and female nude mice, respectively. At approximately 3-4 weeks after inoculation, they were scanned by microcomputed tomography (CT, SIEMENS InveonTM, Munich, Germany) to determine the condition of the model. […] Bone metastases were initially evaluated by CT and confirmed by pathology after the completion of related studies.
Ten PC-3 and ten MDA-MB-231 nude mice with bone metastasis were randomly divided into five groups. The mice were sacrificed by CO2 asphyxiation at 1 h, 3 h, 6 h, 24 h, and 48 h. The important tissue and organ samples were collected for the biodistribution study.

[2] = test system: fresh human plasma; settings: 37°C, 2 h
From the text: The results are expressed as mean ± standard deviation ( χ¯ ± s).

[3] = Bone imaging of New Zealand rabbits (SPECT); settings: New Zealand rabbit, 100 MBq
[4] = 37°C
Protocol: The RCP of [^188Re]Re-IBA was determined by PC. Acetone and 0.9% NaCl were used as the eluents. A TLC scanner was used to measure the distribution of radioactivity on the PC strips. The RCP of [^188Re]Re-IBA was calculated from the peak area measurements as follows: […]
Freshly prepared [^188Re]Re-IBA was incubated in 0.9% NaCl and fresh human serum at 37°C. The RCP of the tubes was determined by PC at 1 h, 3 h, 6 h, 12 h, and 24 h. The experiment was repeated thrice. The results are expressed as mean ± standard deviation ( χ¯ ± s).

CCCCCN(C)CCC1(O)P(=O)(O)[O][188Re]2([OH])([OH])([O]P1(=O)O)[O]P(=O)(O)C(O)(CCN(C)CCCCC)P(=O)(O)[O]2 (stereo not shown) [[^188Re]Re-IBA]
%ID/g Blood ([1]; 1 h): 1.704 ± 0.348 %ID/g | %ID/g Brain ([1]; 1 h): 0.098 ± 0.046 %ID/g | %ID/g CB (contralateral bone) ([1]; 1 h): 9.331 ± 0.541 %ID/g | %ID/g CS (contralateral muscle) ([1]; 1 h): 0.578 ± 0.043 %ID/g | %ID/g Gonad ([1]; 1 h): 0.439 ± 0.162 %ID/g | %ID/g Heart ([1]; 1 h): 0.595 ± 0.099 %ID/g | %ID/g Kidney ([1]; 1 h): 6.004 ± 0.523 %ID/g | %ID/g Liver ([1]; 1 h): 1.236 ± 0.219 %ID/g | %ID/g Lung ([1]; 1 h): 1.135 ± 0.209 %ID/g | %ID/g MB (model bone) ([1]; 1 h): 8.329 ± 0.329 %ID/g | %ID/g Small intestine ([1]; 1 h): 0.718 ± 0.073 %ID/g | %ID/g Spleen ([1]; 1 h): 0.530 ± 0.124 %ID/g | %ID/g Stomach ([1]; 1 h): 3.056 ± 0.321 %ID/g | %ID/g Thyroid gland ([1]; 1 h): 0.625 ± 0.309 %ID/g | CB/CS ratio ([1]; 1 h): 16.144 | CB/heart ratio ([1]; 1 h): 15.682 | CB/liver ratio ([1]; 1 h): 7.549 | MB/CB ratio ([1]; 1 h): 0.893 | MB/CS ratio ([1]; 1 h): 14.411 | MB/heart ratio ([1]; 1 h): 14.003 | MB/liver ratio ([1]; 1 h): 6.738 | %ID/g Blood ([1]; 3 h): 0.531 ± 0.092 %ID/g | %ID/g Brain ([1]; 3 h): 0.082 ± 0.017 %ID/g | %ID/g CB (contralateral bone) ([1]; 3 h): 7.717 ± 4.349 %ID/g | %ID/g CS (contralateral muscle) ([1]; 3 h): 0.524 ± 0.172 %ID/g | %ID/g Gonad ([1]; 3 h): 0.231 ± 0.068 %ID/g | %ID/g Heart ([1]; 3 h): 0.326 ± 0.175 %ID/g | %ID/g Kidney ([1]; 3 h): 2.591 ± 1.120 %ID/g | %ID/g Liver ([1]; 3 h): 0.431 ± 0.312 %ID/g | %ID/g Lung ([1]; 3 h): 0.298 ± 0.250 %ID/g | %ID/g MB (model bone) ([1]; 3 h): 5.922 ± 2.126 %ID/g | %ID/g Small intestine ([1]; 3 h): 0.404 ± 0.047 %ID/g | %ID/g Spleen ([1]; 3 h): 0.227 ± 0.141 %ID/g | %ID/g Stomach ([1]; 3 h): 2.064 ± 0.207 %ID/g | %ID/g Thyroid gland ([1]; 3 h): 0.282 ± 0.149 %ID/g | CB/CS ratio ([1]; 3 h): 14.731 | CB/heart ratio ([1]; 3 h): 23.637 | CB/liver ratio ([1]; 3 h): 17.896 | MB/CB ratio ([1]; 3 h): 0.767 | MB/CS ratio ([1]; 3 h): 11.305 | MB/heart ratio ([1]; 3 h): 18.139 | MB/liver ratio ([1]; 3 h): 13.734 | %ID/g Blood ([1]; 6 h): 0.302 ± 0.092 %ID/g | %ID/g Brain ([1]; 6 h): 0.042 ± 0.042 %ID/g | %ID/g CB (contralateral bone) ([1]; 6 h): 7.662 ± 2.934 %ID/g | %ID/g CS (contralateral muscle) ([1]; 6 h): 0.153 ± 0.083 %ID/g | %ID/g Gonad ([1]; 6 h): 0.106 ± 0.022 %ID/g | %ID/g Heart ([1]; 6 h): 0.183 ± 0.097 %ID/g | %ID/g Kidney ([1]; 6 h): 2.587 ± 0.126 %ID/g | %ID/g Liver ([1]; 6 h): 0.368 ± 0.054 %ID/g | %ID/g Lung ([1]; 6 h): 0.257 ± 0.030 %ID/g | %ID/g MB (model bone) ([1]; 6 h): 8.417 ± 1.820 %ID/g | %ID/g Small intestine ([1]; 6 h): 0.242 ± 0.118 %ID/g | %ID/g Spleen ([1]; 6 h): 0.176 ± 0.029 %ID/g | %ID/g Stomach ([1]; 6 h): 1.176 ± 0.190 %ID/g | %ID/g Thyroid gland ([1]; 6 h): 0.354 ± 0.217 %ID/g | CB/CS ratio ([1]; 6 h): 50.044 | CB/heart ratio ([1]; 6 h): 41.876 | CB/liver ratio ([1]; 6 h): 20.818 | MB/CB ratio ([1]; 6 h): 1.099 | MB/CS ratio ([1]; 6 h): 54.970 | MB/heart ratio ([1]; 6 h): 45.999 | MB/liver ratio ([1]; 6 h): 22.867 | %ID/g Blood ([1]; 24 h): 0.045 ± 0.020 %ID/g | %ID/g Brain ([1]; 24 h): 0.037 ± 0.020 %ID/g | %ID/g CB (contralateral bone) ([1]; 24 h): 4.413 ± 2.225 %ID/g | %ID/g CS (contralateral muscle) ([1]; 24 h): 0.081 ± 0.050 %ID/g | %ID/g Gonad ([1]; 24 h): 0.069 ± 0.018 %ID/g | %ID/g Heart ([1]; 24 h): 0.052 ± 0.027 %ID/g | %ID/g Kidney ([1]; 24 h): 0.640 ± 0.175 %ID/g | %ID/g Liver ([1]; 24 h): 0.089 ± 0.027 %ID/g | %ID/g Lung ([1]; 24 h): 0.101 ± 0.038 %ID/g | %ID/g MB (model bone) ([1]; 24 h): 6.403 ± 0.247 %ID/g | %ID/g Small intestine ([1]; 24 h): 0.049 ± 0.003 %ID/g | %ID/g Spleen ([1]; 24 h): 0.066 ± 0.024 %ID/g | %ID/g Stomach ([1]; 24 h): 0.192 ± 0.092 %ID/g | %ID/g Thyroid gland ([1]; 24 h): 0.082 ± 0.030 %ID/g | CB/CS ratio ([1]; 24 h): 54.620 | CB/heart ratio ([1]; 24 h): 85.157 | CB/liver ratio ([1]; 24 h): 49.848 | MB/CB ratio ([1]; 24 h): 1.451 | MB/CS ratio ([1]; 24 h): 79.255 | MB/heart ratio ([1]; 24 h): 123.563 | MB/liver ratio ([1]; 24 h): 72.330 | %ID/g Blood ([1]; 48 h): 0.021 ± 0.008 %ID/g | %ID/g Brain ([1]; 48 h): 0.021 ± 0.009 %ID/g | %ID/g CB (contralateral bone) ([1]; 48 h): 4.737 ± 0.863 %ID/g | %ID/g CS (contralateral muscle) ([1]; 48 h): 0.041 ± 0.022 %ID/g | %ID/g Gonad ([1]; 48 h): 0.028 ± 0.001 %ID/g | %ID/g Heart ([1]; 48 h): 0.035 ± 0.013 %ID/g | %ID/g Kidney ([1]; 48 h): 0.121 ± 0.034 %ID/g | %ID/g Liver ([1]; 48 h): 0.044 ± 0.013 %ID/g | %ID/g Lung ([1]; 48 h): 0.047 ± 0.005 %ID/g | %ID/g MB (model bone) ([1]; 48 h): 6.503 ± 0.010 %ID/g | %ID/g Small intestine ([1]; 48 h): 0.030 ± 0.018 %ID/g | %ID/g Spleen ([1]; 48 h): 0.022 ± 0.013 %ID/g | %ID/g Stomach ([1]; 48 h): 0.027 ± 0.019 %ID/g | %ID/g Thyroid gland ([1]; 48 h): 0.020 ± 0.010 %ID/g | CB/CS ratio ([1]; 48 h): 115.161 | CB/heart ratio ([1]; 48 h): 133.599 | CB/liver ratio ([1]; 48 h): 106.617 | MB/CB ratio ([1]; 48 h): 1.373 | MB/CS ratio ([1]; 48 h): 158.088 | MB/heart ratio ([1]; 48 h): 183.399 | MB/liver ratio ([1]; 48 h): 146.359 | PPB (plasma protein binding rate) [2]: 79.8 ± 0.71% | Elimination route of most of the activity [3]: through the kidneys | Bone imaging, tracer distribution ([3]; 20 min after the injection): obvious accumulation in bones and mild tracer uptake in soft tissue | RCP, in vitro stability ([4]; 0.9% NaCl, 1 h): 98.14 ± 0.2% | RCP, in vitro stability ([4]; 0.9% NaCl, 3 h): 97.82 ± 0.6% | RCP, in vitro stability ([4]; 0.9% NaCl, 6 h): 96.99 ± 1.3% | RCP, in vitro stability ([4]; 0.9% NaCl, 12 h): 95.33 ± 1.1% | RCP, in vitro stability ([4]; 0.9% NaCl, 24 h): 91.44% and 91.44 ± 0.8% | RCP, in vitro stability ([4]; human serum, 1 h): 99.01 ± 0.5% | RCP, in vitro stability ([4]; human serum, 3 h): 98.67 ± 0.9% | RCP, in vitro stability ([4]; human serum, 6 h): 98.15 ± 0.8% | RCP, in vitro stability ([4]; human serum, 12 h): 96.90 ± 1.4% | RCP, in vitro stability ([4]; human serum, 24 h): 93.06% and 93.06 ± 1.6%

— paper PMC8896928, “Preparation, Characterization, and Preliminary Imaging Study of [^188Re]Re-Ibandronate as a Novel Theranostic Radiopharmaceutical for Bone Metastasis” (Contrast Media & Molecular Imaging, 2022)
